Measurements reported in ChEMBL document CHEMBL5126670, “Structure-Activity Relationships for the N-Me- Versus N-H-Amide Modification to Macrocyclic ent-Verticilide Antiarrhythmics” (ACS Med Chem Lett, 2022).
Active and inactive are the calls of the source. The calls are words filed in the database; no cut-off is given here.

Molecular target: Ryanodine receptor 2 (Mus musculus) (UniProt E9Q401)
Assay: Inhibition of RyR2 in Casq2 gene knockout mouse cardiomyocytes assessed as reduction in calcium sparks frequency at 25 uM incubated for 15 mins by calcium sparks assay
Assay type: cell-based
Details: Cardiomyocyte

Sequence of Ryanodine receptor 2 (Mus musculus) (E9Q401 whole entry): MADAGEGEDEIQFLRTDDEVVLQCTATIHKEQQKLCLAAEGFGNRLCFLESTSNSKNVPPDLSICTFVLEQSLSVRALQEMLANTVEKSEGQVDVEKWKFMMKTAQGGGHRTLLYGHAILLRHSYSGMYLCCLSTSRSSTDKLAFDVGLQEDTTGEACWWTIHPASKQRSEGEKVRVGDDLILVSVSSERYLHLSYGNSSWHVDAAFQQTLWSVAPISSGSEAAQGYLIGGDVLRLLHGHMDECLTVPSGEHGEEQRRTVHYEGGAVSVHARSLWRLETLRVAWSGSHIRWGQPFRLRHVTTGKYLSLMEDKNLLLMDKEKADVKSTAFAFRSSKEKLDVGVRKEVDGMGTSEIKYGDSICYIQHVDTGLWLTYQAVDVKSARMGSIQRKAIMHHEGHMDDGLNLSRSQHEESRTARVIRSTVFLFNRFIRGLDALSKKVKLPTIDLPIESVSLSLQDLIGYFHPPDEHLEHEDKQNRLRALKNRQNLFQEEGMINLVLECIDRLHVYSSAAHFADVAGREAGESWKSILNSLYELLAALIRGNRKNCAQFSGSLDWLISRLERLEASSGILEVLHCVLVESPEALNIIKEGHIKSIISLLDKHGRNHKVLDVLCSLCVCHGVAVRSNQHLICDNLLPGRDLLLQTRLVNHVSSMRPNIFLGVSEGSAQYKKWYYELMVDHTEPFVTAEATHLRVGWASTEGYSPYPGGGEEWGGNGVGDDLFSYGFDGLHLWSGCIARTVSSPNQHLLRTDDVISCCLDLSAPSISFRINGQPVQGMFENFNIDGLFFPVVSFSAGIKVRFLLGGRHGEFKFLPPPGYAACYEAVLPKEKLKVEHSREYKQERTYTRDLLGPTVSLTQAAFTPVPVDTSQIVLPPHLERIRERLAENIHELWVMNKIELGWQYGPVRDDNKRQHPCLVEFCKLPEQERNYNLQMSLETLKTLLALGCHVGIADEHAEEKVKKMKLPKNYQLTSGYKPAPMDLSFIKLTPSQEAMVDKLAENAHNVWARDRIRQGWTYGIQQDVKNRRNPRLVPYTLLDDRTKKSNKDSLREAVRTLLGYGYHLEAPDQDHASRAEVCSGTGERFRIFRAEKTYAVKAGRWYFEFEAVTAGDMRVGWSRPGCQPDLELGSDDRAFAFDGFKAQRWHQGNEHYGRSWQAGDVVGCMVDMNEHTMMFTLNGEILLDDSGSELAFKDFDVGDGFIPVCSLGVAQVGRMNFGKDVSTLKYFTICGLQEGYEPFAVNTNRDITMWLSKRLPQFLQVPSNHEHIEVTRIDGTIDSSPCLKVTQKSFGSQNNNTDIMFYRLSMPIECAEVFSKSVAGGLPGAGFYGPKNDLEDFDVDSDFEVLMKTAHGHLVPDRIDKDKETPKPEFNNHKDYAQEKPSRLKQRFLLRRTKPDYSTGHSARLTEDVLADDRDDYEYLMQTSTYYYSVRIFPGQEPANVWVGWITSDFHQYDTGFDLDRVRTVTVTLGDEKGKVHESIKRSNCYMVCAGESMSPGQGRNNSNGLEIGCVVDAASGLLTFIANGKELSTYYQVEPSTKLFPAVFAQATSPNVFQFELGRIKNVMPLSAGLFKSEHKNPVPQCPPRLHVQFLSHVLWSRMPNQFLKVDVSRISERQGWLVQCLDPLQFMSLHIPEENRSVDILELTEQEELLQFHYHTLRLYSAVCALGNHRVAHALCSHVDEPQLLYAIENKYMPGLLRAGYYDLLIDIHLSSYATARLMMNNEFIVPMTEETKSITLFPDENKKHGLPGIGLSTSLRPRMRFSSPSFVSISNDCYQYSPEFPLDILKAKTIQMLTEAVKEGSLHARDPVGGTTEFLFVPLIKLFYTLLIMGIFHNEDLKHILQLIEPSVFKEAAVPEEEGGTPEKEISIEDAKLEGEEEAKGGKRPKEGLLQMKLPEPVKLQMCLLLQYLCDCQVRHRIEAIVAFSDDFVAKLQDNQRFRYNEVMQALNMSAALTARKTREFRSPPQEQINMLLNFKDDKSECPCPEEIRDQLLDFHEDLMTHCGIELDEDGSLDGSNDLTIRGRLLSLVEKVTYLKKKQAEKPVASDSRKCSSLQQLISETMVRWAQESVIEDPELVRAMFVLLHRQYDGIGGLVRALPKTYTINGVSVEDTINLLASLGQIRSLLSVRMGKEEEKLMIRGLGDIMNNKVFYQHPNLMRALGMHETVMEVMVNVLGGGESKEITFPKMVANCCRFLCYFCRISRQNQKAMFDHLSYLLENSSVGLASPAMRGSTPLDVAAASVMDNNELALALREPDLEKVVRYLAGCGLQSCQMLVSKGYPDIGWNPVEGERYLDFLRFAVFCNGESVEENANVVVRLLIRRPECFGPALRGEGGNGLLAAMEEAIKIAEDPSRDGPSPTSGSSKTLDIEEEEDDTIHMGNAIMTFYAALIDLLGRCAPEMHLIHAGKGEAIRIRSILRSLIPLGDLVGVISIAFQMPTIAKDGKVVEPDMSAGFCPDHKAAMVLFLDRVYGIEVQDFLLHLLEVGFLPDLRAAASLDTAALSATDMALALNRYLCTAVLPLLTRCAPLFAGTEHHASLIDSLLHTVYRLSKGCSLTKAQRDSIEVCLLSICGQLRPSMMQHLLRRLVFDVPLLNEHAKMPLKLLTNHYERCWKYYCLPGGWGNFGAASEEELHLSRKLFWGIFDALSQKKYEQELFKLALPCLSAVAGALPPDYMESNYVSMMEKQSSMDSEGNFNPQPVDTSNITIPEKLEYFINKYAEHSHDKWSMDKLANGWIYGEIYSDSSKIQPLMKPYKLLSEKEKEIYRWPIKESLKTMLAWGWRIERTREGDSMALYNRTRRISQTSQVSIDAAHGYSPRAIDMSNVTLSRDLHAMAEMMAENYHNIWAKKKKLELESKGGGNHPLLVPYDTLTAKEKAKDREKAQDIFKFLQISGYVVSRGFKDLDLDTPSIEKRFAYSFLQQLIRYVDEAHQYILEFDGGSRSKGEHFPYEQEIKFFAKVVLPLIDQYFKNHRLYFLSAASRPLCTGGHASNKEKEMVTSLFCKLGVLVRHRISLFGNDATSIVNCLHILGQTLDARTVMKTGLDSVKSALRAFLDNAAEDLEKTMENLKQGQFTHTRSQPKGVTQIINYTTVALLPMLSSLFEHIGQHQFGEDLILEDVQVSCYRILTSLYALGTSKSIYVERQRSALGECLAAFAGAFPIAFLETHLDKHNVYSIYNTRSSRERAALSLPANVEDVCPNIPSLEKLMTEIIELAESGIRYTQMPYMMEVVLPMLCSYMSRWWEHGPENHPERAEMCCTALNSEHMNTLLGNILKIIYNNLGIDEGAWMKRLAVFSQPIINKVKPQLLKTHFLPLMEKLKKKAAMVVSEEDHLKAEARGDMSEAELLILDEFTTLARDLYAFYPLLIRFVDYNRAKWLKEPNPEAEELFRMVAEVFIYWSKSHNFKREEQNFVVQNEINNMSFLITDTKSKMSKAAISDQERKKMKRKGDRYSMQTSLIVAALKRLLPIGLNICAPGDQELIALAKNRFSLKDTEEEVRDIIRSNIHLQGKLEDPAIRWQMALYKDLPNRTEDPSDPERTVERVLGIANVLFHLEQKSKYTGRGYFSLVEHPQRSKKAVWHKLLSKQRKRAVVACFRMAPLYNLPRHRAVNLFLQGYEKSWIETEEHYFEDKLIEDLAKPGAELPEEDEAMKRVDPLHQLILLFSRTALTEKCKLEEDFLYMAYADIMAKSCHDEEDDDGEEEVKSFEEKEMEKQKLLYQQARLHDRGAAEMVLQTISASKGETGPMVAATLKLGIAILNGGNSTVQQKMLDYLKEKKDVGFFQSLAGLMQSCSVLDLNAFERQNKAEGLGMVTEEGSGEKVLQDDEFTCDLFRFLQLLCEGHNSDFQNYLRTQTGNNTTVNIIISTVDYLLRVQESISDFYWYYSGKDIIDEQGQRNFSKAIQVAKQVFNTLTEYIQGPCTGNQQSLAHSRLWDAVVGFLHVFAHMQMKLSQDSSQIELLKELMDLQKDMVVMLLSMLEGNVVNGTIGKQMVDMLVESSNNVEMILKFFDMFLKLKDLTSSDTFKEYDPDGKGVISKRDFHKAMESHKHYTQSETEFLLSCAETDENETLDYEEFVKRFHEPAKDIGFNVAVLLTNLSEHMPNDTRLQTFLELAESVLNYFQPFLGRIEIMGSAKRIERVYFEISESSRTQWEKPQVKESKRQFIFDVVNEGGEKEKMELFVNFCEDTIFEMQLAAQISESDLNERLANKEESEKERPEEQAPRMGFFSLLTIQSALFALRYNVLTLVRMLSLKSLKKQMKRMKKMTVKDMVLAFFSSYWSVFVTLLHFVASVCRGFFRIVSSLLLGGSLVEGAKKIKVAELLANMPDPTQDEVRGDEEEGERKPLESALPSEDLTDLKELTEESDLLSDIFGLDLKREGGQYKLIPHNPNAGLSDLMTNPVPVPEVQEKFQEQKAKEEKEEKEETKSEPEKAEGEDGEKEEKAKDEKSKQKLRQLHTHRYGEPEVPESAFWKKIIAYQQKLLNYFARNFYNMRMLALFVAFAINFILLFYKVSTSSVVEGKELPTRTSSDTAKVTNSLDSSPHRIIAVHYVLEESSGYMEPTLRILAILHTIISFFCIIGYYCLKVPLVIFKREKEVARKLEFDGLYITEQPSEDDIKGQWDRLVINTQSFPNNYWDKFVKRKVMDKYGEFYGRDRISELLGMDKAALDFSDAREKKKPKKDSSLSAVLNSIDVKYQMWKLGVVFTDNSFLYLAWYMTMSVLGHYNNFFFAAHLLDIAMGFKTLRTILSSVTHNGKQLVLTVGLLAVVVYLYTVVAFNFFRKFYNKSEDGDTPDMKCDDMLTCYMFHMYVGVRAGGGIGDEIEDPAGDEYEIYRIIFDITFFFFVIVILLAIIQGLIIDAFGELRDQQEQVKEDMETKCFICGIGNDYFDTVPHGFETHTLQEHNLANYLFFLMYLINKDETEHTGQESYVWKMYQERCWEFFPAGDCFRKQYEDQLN

| inhibition | Structure (SMILES) |
| --- | --- |
| Active | CCCCC[C@@H]1OC(=O)[C@@H](C)N(C)C(=O)[C@H](CCCCC)OC(=O)[C@@H](C)NC(=O)[C@H](CCCCC)OC(=O)[C@@H](C)NC1=O |
| Active | CCCCC[C@@H]1OC(=O)[C@@H](C)NC(=O)[C@H](CCCCC)OC(=O)[C@@H](C)NC(=O)[C@H](CCCCC)OC(=O)[C@@H](C)NC1=O |
| Active | CCCCC[C@@H]1OC(=O)[C@@H](C)N(C)C(=O)[C@H](CCCCC)OC(=O)[C@@H](C)N(C)C(=O)[C@H](CCCCC)OC(=O)[C@@H](C)NC1=O |

| Structure (SMILES) | inhibition |
| --- | --- |
| CCCCC[C@@H]1OC(=O)[C@@H](C)N(C)C(=O)[C@H](CCCCC)OC(=O)[C@@H](C)N(C)C(=O)[C@H](CCCCC)OC(=O)[C@@H](C)N(C)C1=O | Active |
